Measurements as given in patent US9937151B2, “Carbapenem antibacterials with gram-negative activity” (priority 2010, dated 2018).
≈ marks a conversion by molar mass, not a printed value.

Test system: G(−) bacterial strains
Assay: Dilution antimicrobial susceptibility tests (MIC, NCCLS agar dilution / broth dilution)
Type: cell-based, Gram-negative organisms
Conditions: unit assumed
Outline: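 Agar dilution on Mueller-Hinton agar at 10^4 CFU/spot and broth dilution at 5×10^5 CFU/well, per NCCLS M7-A5. Streptococci tested on Mueller-Hinton agar with 5% sheep blood. MIC taken as minimum inhibitory concentration; ATCC control strains run alongside.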

[1] = strain #1 Acinetobacter calcoaceticus
[2] = strain #2 Acinetobacter baumannii, Cf-R, Ci-R
[3] = strain #3 Acinetobacter baumannii, Cf-R, Ci-R, Mp-I
[4] = strain #4 Acinetobacter baumannii, Cf-R, Imp-I, CBPase
[5] = strain #7 Enterobacter aerogenes
[6] = strain #8 Enterobacter cloacae, Cf-R, B+
[7] = strain #9 Enterobacter cloacae, Cf-R
[8] = strain #10 Escherichia coli, Ci-R
[9] = strain #11 Escherichia coli, Ci-R, AmpC
[10] = strain #15 Klebsiella pneumoniae
[11] = strain #16 Moraxella catarrhalis
[12] = strain #21 Providencia rettgeri
[13] = strain #22 Salmonella typhimurium
[14] = strain #25 Shigella dysenteriae
[15] = strain #28 Stenotrophomonas maltophilia
[16] = strain #29 Pseudomonas aeruginosa
[17] = strain #30 Pseudomonas aeruginosa
[18] = strain #31 Pseudomonas aeruginosa, Ofx-R
[19] = strain #32 Pseudomonas aeruginosa, Cf-R
[20] = strain #33 Pseudomonas aeruginosa, Ci-R
[21] = strain #34 Pseudomonas aeruginosa, Gen-R
[22] = strain #35 Pseudomonas aeruginosa, Ip-R
[23] = strain #36 Pseudomonas aeruginosa, Cf-R, Ci-R, Mp-R

| Structure (SMILES) | MIC [1] | MIC [2] | MIC [3] | MIC [4] | MIC (strain #5 Citrobacter diversus) | MIC (strain #6 Citrobacter freundii) | MIC [5] | MIC [6] | MIC [7] | MIC [8] | MIC [9] | MIC (strain #12 Escherichia coli) | MIC (strain #13 Escherichia coli) | MIC (strain #14 Klebsiella oxytoca) | MIC [10] | MIC [11] | MIC (strain #17 Morganella Morganii) | MIC (strain #18 Morganella Morganii) | MIC (strain #19 Proteus vulgaris) | MIC (strain #20 Proteus mirabilis) | also measured |
| --- | --- | --- | --- | --- | --- | --- | --- | --- | --- | --- | --- | --- | --- | --- | --- | --- | --- | --- | --- | --- | --- |
| C[C@@H](O)C1C(=O)N2C(C(=O)O)=C(CN3CC(NC(=N)N)C3)[C@H](C)C12 (stereo partly drawn) [Compound 89] | 0.13 µg/mL (≈ 0.385 µM) | 1 µg/mL (≈ 2.96 µM) | 1 µg/mL (≈ 2.96 µM) | 0.5 µg/mL (≈ 1.48 µM) | 0.13 µg/mL (≈ 0.385 µM) | 0.25 µg/mL (≈ 0.741 µM) | 1 µg/mL (≈ 2.96 µM) | 0.13 µg/mL (≈ 0.385 µM) | 0.25 µg/mL (≈ 0.741 µM) | 0.13 µg/mL (≈ 0.385 µM) | 0.13 µg/mL (≈ 0.385 µM) | 0.13 µg/mL (≈ 0.385 µM) | 0.25 µg/mL (≈ 0.741 µM) | 0.5 µg/mL (≈ 1.48 µM) | 0.25 µg/mL (≈ 0.741 µM) | ≤ 0.008 µg/mL | 2 µg/mL (≈ 5.93 µM) | 2 µg/mL (≈ 5.93 µM) | 0.5 µg/mL (≈ 1.48 µM) | 0.25 µg/mL (≈ 0.741 µM) | MIC [12]: 1 µg/mL (≈ 2.96 µM); MIC [13]: 0.25 µg/mL (≈ 0.741 µM); MIC (strain #23 Serratia marcescens): 0.5 µg/mL (≈ 1.48 µM); MIC (strain #24 Serratia marcescens): 0.5 µg/mL (≈ 1.48 µM); MIC [14]: 0.25 µg/mL (≈ 0.741 µM); MIC (strain #26 Shigella sonnei): 0.25 µg/mL (≈ 0.741 µM); MIC (strain #27 Shigella flexneri): 0.13 µg/mL (≈ 0.385 µM); MIC [15]: 0.13 µg/mL (≈ 0.385 µM); MIC [16]: 1 µg/mL (≈ 2.96 µM); MIC [17]: 1 µg/mL (≈ 2.96 µM); MIC [18]: 0.5 µg/mL (≈ 1.48 µM); MIC [19]: 1 µg/mL (≈ 2.96 µM); MIC [20]: 1 µg/mL (≈ 2.96 µM); MIC [21]: 1 µg/mL (≈ 2.96 µM); MIC [22]: 4 µg/mL (≈ 11.9 µM); MIC [23]: 8 µg/mL (≈ 23.7 µM) |
| C[C@@H](O)C1C(=O)N2C(C(=O)O)=C(CN3CC(N)C3)[C@H](C)C12 (stereo partly drawn) [Compound 93] | 1 µg/mL (≈ 3.39 µM) | 2 µg/mL (≈ 6.77 µM) | 8 µg/mL (≈ 27.1 µM) | 2 µg/mL (≈ 6.77 µM) | 0.25 µg/mL (≈ 0.846 µM) | 0.5 µg/mL (≈ 1.69 µM) | 2 µg/mL (≈ 6.77 µM) | 0.25 µg/mL (≈ 0.846 µM) | 0.5 µg/mL (≈ 1.69 µM) | 0.25 µg/mL (≈ 0.846 µM) | 0.25 µg/mL (≈ 0.846 µM) | 0.25 µg/mL (≈ 0.846 µM) | 0.5 µg/mL (≈ 1.69 µM) | 0.5 µg/mL (≈ 1.69 µM) | 0.5 µg/mL (≈ 1.69 µM) | 0.031 µg/mL (≈ 0.105 µM) | 8 µg/mL (≈ 27.1 µM) | 4 µg/mL (≈ 13.5 µM) | 2 µg/mL (≈ 6.77 µM) | 0.5 µg/mL (≈ 1.69 µM) | MIC [12]: 2 µg/mL (≈ 6.77 µM); MIC [13]: 0.5 µg/mL (≈ 1.69 µM); MIC (strain #23 Serratia marcescens): 1 µg/mL (≈ 3.39 µM); MIC (strain #24 Serratia marcescens): 1 µg/mL (≈ 3.39 µM); MIC [14]: 0.5 µg/mL (≈ 1.69 µM); MIC (strain #26 Shigella sonnei): 0.5 µg/mL (≈ 1.69 µM); MIC (strain #27 Shigella flexneri): 0.25 µg/mL (≈ 0.846 µM); MIC [15]: 0.5 µg/mL (≈ 1.69 µM); MIC [16]: 4 µg/mL (≈ 13.5 µM); MIC [17]: 4 µg/mL (≈ 13.5 µM); MIC [18]: 4 µg/mL (≈ 13.5 µM); MIC [19]: 4 µg/mL (≈ 13.5 µM); MIC [20]: 8 µg/mL (≈ 27.1 µM); MIC [21]: 8 µg/mL (≈ 27.1 µM); MIC [22]: 16 µg/mL (≈ 54.2 µM); MIC [23]: 16 µg/mL (≈ 54.2 µM) |
| C[C@@H](O)C1C(=O)N2C(C(=O)O)=C(CN3CC[C@H](CNC(=N)N)C3)[C@H](C)C12 (stereo partly drawn) [Compound 99] | 0.25 µg/mL (≈ 0.684 µM) | 1 µg/mL (≈ 2.74 µM) | 2 µg/mL (≈ 5.47 µM) | 2 µg/mL (≈ 5.47 µM) | 0.5 µg/mL (≈ 1.37 µM) | 1 µg/mL (≈ 2.74 µM) | 2 µg/mL (≈ 5.47 µM) | 0.5 µg/mL (≈ 1.37 µM) | 1 µg/mL (≈ 2.74 µM) | 0.5 µg/mL (≈ 1.37 µM) | 0.5 µg/mL (≈ 1.37 µM) | 0.5 µg/mL (≈ 1.37 µM) | 1 µg/mL (≈ 2.74 µM) | 2 µg/mL (≈ 5.47 µM) | 1 µg/mL (≈ 2.74 µM) | ≤ 0.008 µg/mL | 4 µg/mL (≈ 10.9 µM) | 4 µg/mL (≈ 10.9 µM) | 2 µg/mL (≈ 5.47 µM) | 1 µg/mL (≈ 2.74 µM) | MIC [12]: 4 µg/mL (≈ 10.9 µM); MIC [13]: 1 µg/mL (≈ 2.74 µM); MIC (strain #23 Serratia marcescens): 2 µg/mL (≈ 5.47 µM); MIC (strain #24 Serratia marcescens): 4 µg/mL (≈ 10.9 µM); MIC [14]: 1 µg/mL (≈ 2.74 µM); MIC (strain #26 Shigella sonnei): 1 µg/mL (≈ 2.74 µM); MIC (strain #27 Shigella flexneri): 1 µg/mL (≈ 2.74 µM); MIC [15]: 0.25 µg/mL (≈ 0.684 µM); MIC [16]: 2 µg/mL (≈ 5.47 µM); MIC [17]: 2 µg/mL (≈ 5.47 µM); MIC [18]: 1 µg/mL (≈ 2.74 µM); MIC [19]: 4 µg/mL (≈ 10.9 µM); MIC [20]: 4 µg/mL (≈ 10.9 µM); MIC [21]: 4 µg/mL (≈ 10.9 µM); MIC [22]: 4 µg/mL (≈ 10.9 µM); MIC [23]: > 32 µg/mL |
